Measured values from US20110236504A1, “VERSATILE DISINFECTANT” (priority 2008, published 2011).
Several values for one entry are separate records, joined by “and”; a condition that tells them apart may be missing. Identical values can stand only once. Like-named read-outs stand apart in the source and are kept apart here.

Assays:
[1] = test system: viable bacteria on skin surface; assay: Application on hand skin, swab method; format: in vivo; conditions: for The number of viable bacteria on skin surface, relative value: before application = 100
Procedure: The disinfectant prepared in Preparation Example 3 was applied. Immediately after that, an area of 10 cm^2 was wiped with sterile gauze that was immersed into sterile physiological saline. Then, the number of bacteria was counted (Swab method). Next, different areas each having an area of 10 cm^2 were wiped in the applied area after 15 minutes, after 30 minutes, and after 60 minutes, and the viability of bacteria on the skin was determined. As controls, tap water and 70% ethanol were used. The number of bacteria before the application of disinfectants is regarded as 100 and relative values are shown.

[2] = test system: pus mainly including antibiotic resistant Pseudomonas aeruginosa (MDRP); conditions: Pus (MDRP) 5 × 10^9/g
[3] = test system: viable bacteria in sputum; assay: Sterilization effect on specimen: sputum; conditions: Sputum 2 × 10^9/g
[4] = test system: pus mainly including antibiotic resistant MRSA; conditions: Pus (MRSA) 4 × 10^9/g
[5] = test system: spores of Bacillus species; assay: Spore decay time and decay rate in dried soil, aerobic culture; format: cell-based; conditions: for Spore decay rate, Spores of Bacillus species: 1 g dried soil in 10 ml, aerobic culture
Procedure: (§1) Sands in a sandbox in a park and riverside soil were collected and mixed. The mixture was dried with heated air at 80 to 90° C. for 6 hours. Then, 1 g of the dried mixture was added into water and immediately filtered with a filter. A part of the filtrate was applied onto a glass slide, and spores were stained in a common procedure. The number of stained spores was counted and the number of spores contained in 1 g of soil was determined. Simultaneously, the spores were aerobically (Bacillus species proliferated) and anaerobically (Clostridium species proliferated) cultured, and each ratio was determined.
(§2) Then, into 10 ml of the sample disinfectant, 1 g of the dried soil was added. Some of the mixture was collected with time, and cultured aerobically and anaerobically. The number of growing colonies was counted to determine the decay rate of the spores.

[6] = test system: spores of Clostridium species; assay: Spore decay time and decay rate in dried soil, anaerobic culture; format: cell-based; conditions: for Spore decay rate, Spores of Clostridium species: 1 g dried soil in 10 ml, anaerobic culture
Procedure: as §1, §2

[7] = test system: intestinal bacteria in feces; assay: Sterilization effect on specimen: feces; conditions: for The number of viable bacteria in specimen: Feces 1.5 × 10^11/g
[8] = test system: S. aureus 209P; assay: 100% death time on contact with solution; format: cell-based
Description: Examples of the effect are shown below.

[9] = test system: E. coli O-157; assay: 100% death time on contact with solution
[10] = test system: S. aureus 209P; assay: Metal ion or food preservative added to growth medium, viable count; format: cell-based; conditions: metal ion in growth medium
Procedure: (§3) To a standard medium for counting viable bacteria described below, each metal ion with varied concentration was added. […] Then, the number of viable bacteria was counted with time in a common procedure.
(§4) Sample bacteria: S. aureus 209P as a representative of Gram-positive bacteria • E. coli 0-157 as a representative of Gram-negative bacteria
(§5) Standard medium for counting viable bacteria: yeast extract 2.5 g, peptone 5 g, glucose 1 g, agar 15 g, pH 7.2

[11] = test system: E. coli O-157; assay: as above; format: cell-based; conditions: metal ion in growth medium
Procedure: as §3, §4, §5

[12] = Investigation of aqueous L-ascorbic acid solution; format: cell-based
Description: L-ascorbic acid (vitamin C) is essential for a living body and well fitted to body tissues. Addition of a small amount of L-ascorbic acid increases affinity to cellular tissues.

[13] = test system: viable bacteria in saliva; assay: Effect of gargle, viable bacteria in saliva; format: in vivo, persons; conditions: for number of viable bacteria in saliva, relative value: before gargle = 100, one value per person
Procedure: Next, the efficacy of the disinfectant was examined when it is used for a gargle. The number of viable bacteria was counted in 1 ml of saliva that was collected from each of three persons before a gargle. Then, each person gargled three times each for 20 seconds, that is, gargled for total of 1 minute, with the disinfectant of the present invention that was prepared in Preparation Example 6. Each saliva was collected immediately after the gargle and at 15 minutes, 30 minutes, and 60 minutes after the gargle. The number of viable bacteria was counted per 1 ml of the saliva, and the effect of gargle was determined. Here, the number of viable bacteria before gargle is regarded as 100, and relative values are shown.
As a control, each of two persons was gargled with tap water or 1000 ppm povidone-iodine in a similar way.

[14] = Cu^2+ 50 ppm + L-ascorbic acid 100 ppm
[15] = Cu^2+ 50 ppm + L-ascorbic acid 100 ppm + potassium sorbate 50 ppm
[16] = Cu^2+ 50 ppm + potassium sorbate 50 ppm
[17] = Cu^2+ 50 ppm + sodium lauryl sulfate 50 ppm
[18] = Cu^2+ 50 ppm + sodium lauryl sulfate 50 ppm + L-ascorbic acid 100 ppm
[19] = Cu^2+ 50 ppm + sodium lauryl sulfate 50 ppm + L-ascorbic acid 100 ppm + potassium sorbate 50 ppm

CCO [70% Ethanol, ethanol]
number of bacteria on skin relative to before application ([1]; after 60 minutes): 45% | The number of viable bacteria on skin surface, relative value ([1]; after 15 min): 12 | The number of viable bacteria on skin surface, relative value ([1]; after 30 min): 20 | The number of viable bacteria on skin surface, relative value ([1]; after 60 min): 45 | The number of viable bacteria on skin surface, relative value ([1]; immediately after): 0 | The number of viable bacteria on skin surface, relative value ([1]; immediately after, listed as 70% ethanol): no bacteria was observed | The number of viable bacteria in specimen ([2]; 5 min after addition): 7e+07 g⁻¹ | The number of viable bacteria in specimen ([2]; 15 min after addition): 500000 g⁻¹ | The number of viable bacteria in specimen ([2]; 30 min after addition): 10000 g⁻¹ | The number of viable bacteria in specimen ([2]; 60 min after addition): 10000 g⁻¹ | The number of viable bacteria in specimen ([3]; 5 min after addition): 1e+08 g⁻¹ | The number of viable bacteria in specimen ([3]; 15 min after addition): 2e+07 g⁻¹ | The number of viable bacteria in specimen ([3]; 30 min after addition): 6e+06 g⁻¹ | The number of viable bacteria in specimen ([3]; 60 min after addition): 5e+06 g⁻¹ | The number of viable bacteria in specimen ([3]; 60 min after addition, listed as 70% ethanol): 5e+06 g⁻¹ | The number of viable bacteria in specimen ([4]; 5 min after addition): 5e+07 g⁻¹ | The number of viable bacteria in specimen ([4]; 15 min after addition): 200000 g⁻¹ | The number of viable bacteria in specimen ([4]; 30 min after addition): 80000 g⁻¹ | The number of viable bacteria in specimen ([4]; 60 min after addition): 50000 g⁻¹ | effect on the spores [5]: no effect | Spore decay rate, Spores of Bacillus species ([5]; 1 min contact): 0% | Spore decay rate, Spores of Bacillus species ([5]; 5 min contact): 0% | Spore decay rate, Spores of Bacillus species ([5]; 10 min contact): 0% | Spore decay rate, Spores of Bacillus species ([5]; 30 min contact): 0% | Spore decay rate, Spores of Bacillus species ([5]; 60 min contact): 0% | Spore decay rate, Spores of Bacillus species ([5]; 120 min contact): 0% | effect on the spores [6]: no effect | Spore decay rate, Spores of Clostridium species ([6]; 1 min contact): 0% | Spore decay rate, Spores of Clostridium species ([6]; 5 min contact): 0% | Spore decay rate, Spores of Clostridium species ([6]; 10 min contact): 0% | Spore decay rate, Spores of Clostridium species ([6]; 30 min contact): 0% | Spore decay rate, Spores of Clostridium species ([6]; 60 min contact): 0% | Spore decay rate, Spores of Clostridium species ([6]; 120 min contact): 0% | The number of viable bacteria in specimen ([7]; 5 min after addition): 5e+06 g⁻¹ | The number of viable bacteria in specimen ([7]; 15 min after addition): 3000 g⁻¹ | The number of viable bacteria in specimen ([7]; 30 min after addition): 4e+10 g⁻¹ | The number of viable bacteria in specimen ([7]; 60 min after addition): 4e+16 g⁻¹ | effect on bacteria in feces ([7]; feces): only slightly decreased

O.O.O.O.O.O=S(=O)([O-])[O-].[Cu+2] [Cu^2+, CuSO4•5H2O]
100% death time [8, 14]: 60 min | 100% death time [8, 15]: 50 min | 100% death time [8, 16]: 75 min | 100% death time [8, 17]: 1.5 min | 100% death time [8, 18]: 1 min | 100% death time [8, 19]: 0.75 min | 100% death time ([8]; Cu^2+ ion 50 ppm alone): 90 min | 100% death time [9, 14]: 60 min | 100% death time [9, 15]: 45 min | 100% death time [9, 16]: 70 min | 100% death time [9, 17]: 1 min | 100% death time [9, 18]: 1 min | 100% death time [9, 19]: 0.5 min | 100% death time ([9]; Cu^2+ ion 50 ppm alone): 90 min | (a) Antiproliferative activity, concentration [10]: 10~50 ppm | (b) Bacteriostatic activity, concentration [10]: 40~150 ppm | Acceleration of growth, concentration [10]: 5 ppm< | (a) Antiproliferative activity, concentration [11]: 5~30 ppm | (b) Bacteriostatic activity, concentration [11]: 25~120 ppm | (c) Bactericidal activity, concentration [11]: 100 ppm> | Acceleration of growth, concentration [11]: 5 ppm<

O=C1O[C@H]([C@@H](O)CO)C(O)=C1O [L-ascorbic acid]
antimicrobial activity of aqueous solution itself [12]: almost no antimicrobial activity

povidone-iodine
number of bacteria in saliva relative to before gargle ([13]; after 60 minutes): 30 to 40% | number of viable bacteria in saliva, relative value ([13]; after 15 min): 5 and 8 | number of viable bacteria in saliva, relative value ([13]; after 30 min): 18 and 20 | number of viable bacteria in saliva, relative value ([13]; after 60 min): 30 and 40 | number of viable bacteria in saliva, relative value ([13]; immediately after gargle): 2 | number of bacteria in saliva relative to before gargle ([13]; immediately after the gargle): 2%
